Each molecule was assayed against T1, human TLR8 (Homo sapiens, UniProt Q9NR97) (assay: HEK293-Blue-hTLR-8 cells assay). Conditions: HEK293-Blue-hTLR8 cells, R848 stimulation, 20 hrs; read-out: HEK/hTLR8 IC50.
T1 construct: host or cells: HEK293 (HEK-Blue hTLR8)
T1 sequence (Q9NR97 27-1041): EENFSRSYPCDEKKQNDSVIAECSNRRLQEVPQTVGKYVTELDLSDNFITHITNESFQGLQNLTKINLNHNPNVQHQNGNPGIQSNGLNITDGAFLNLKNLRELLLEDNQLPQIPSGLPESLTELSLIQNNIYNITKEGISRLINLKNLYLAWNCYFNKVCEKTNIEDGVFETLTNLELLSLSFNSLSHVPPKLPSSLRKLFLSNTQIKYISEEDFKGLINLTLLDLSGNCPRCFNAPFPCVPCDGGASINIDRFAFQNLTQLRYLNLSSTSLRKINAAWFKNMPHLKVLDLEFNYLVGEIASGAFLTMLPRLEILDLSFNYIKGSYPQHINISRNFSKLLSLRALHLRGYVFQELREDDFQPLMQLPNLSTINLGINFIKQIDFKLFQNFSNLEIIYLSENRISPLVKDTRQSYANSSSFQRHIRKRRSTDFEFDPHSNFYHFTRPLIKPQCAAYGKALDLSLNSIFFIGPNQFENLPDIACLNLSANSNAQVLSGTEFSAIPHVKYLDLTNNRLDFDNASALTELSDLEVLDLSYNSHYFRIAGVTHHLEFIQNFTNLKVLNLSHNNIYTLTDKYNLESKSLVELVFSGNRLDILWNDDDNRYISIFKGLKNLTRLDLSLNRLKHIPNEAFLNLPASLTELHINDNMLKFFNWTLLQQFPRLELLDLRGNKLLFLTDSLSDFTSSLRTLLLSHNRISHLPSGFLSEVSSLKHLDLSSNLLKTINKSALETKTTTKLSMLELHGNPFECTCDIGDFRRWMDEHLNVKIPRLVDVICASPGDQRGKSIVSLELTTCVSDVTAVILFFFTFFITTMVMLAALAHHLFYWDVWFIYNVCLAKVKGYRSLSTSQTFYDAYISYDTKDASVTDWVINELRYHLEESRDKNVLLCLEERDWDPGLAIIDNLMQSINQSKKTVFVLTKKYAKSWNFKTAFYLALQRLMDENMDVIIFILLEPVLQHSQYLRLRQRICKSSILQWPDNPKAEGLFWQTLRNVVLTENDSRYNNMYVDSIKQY
Type: cell-based
Text: A stable HEK293-Blue-hTLR-8 cell line was purchased from InvivoGen (Cat. #: hkb-htlr8, San Diego, California, USA). These cells were originally designed for studying the stimulation of human TLR8 by monitoring the activation of NF-κB. A SEAP (secreted embryonic alkaline phosphatase) reporter gene was placed under the control of the IFN-β minimal promoter fused to five NF-κB and AP-1-binding sites. The SEAP was induced by activating NF-κB and AP-1 via stimulating HEK-Blue hTLR8 cells with TLR8 ligands. Therefore the reporter expression was declined by TLR8 antagonist under the stimulation of a ligand, such as R848, for incubation of 20 hrs. The cell culture supernatant SEAP reporter activity was determined using QUANTT-BlueTv™ kit (Cat. #: rep-qbl, Invivogen, San Diego, Ca, USA) at a wavelength of 640 nm, a detection medium that turns purple or blue in the presence of alkaline phosphatase.
HEK293-Blue-hTLR8 cells were incubated at a density of 250,000˜450,000 cells/mL in a volume of 170 μL in a 96-well plate in Dulbecco's Modified Eagle's medium (DMEM) containing 4.5 g/L glucose, 50 U/mi penicillin, […] streptomycin, […], 2 mM L-glutamine, 10% (v/v) heat-inactivated fetal bovine serum with addition of 20 μL test compound in a serial dilution in the presence of final DMSO at 1% and 10 μL of 60 μM R848 in above DMEM, perform incubation under 37° C. in a CO2 incubator for 20 hrs. Then 20 μL of the supernatant from each well was incubated with 180 μL Quanti-blue substrate solution at 37° C. for 2 hrs and the absorbance was read at 620-655 nm using a spectrophotometer. The signaling pathway that TLR8 activation leads to downstream NF-κB activation has been widely accepted, and therefore similar reporter assay was modified for evaluating TLR8 antagonist.

Row | SMILES | IC50 [nM]
1 | Cc1cc(N2CCC(c3ncc(N4CCNCC4)cn3)CC2)c2cnn(C)c2n1 [Example 4, 1,6-dimethyl-4-[4-(5-piperazin-1-ylpyrimidin-2-yl)-1-piperidyl]pyrazolo[3,4-b]pyridine] | 59
2 | Cc1cc(N2CCC(c3ccc(N4CCNCC4)nc3C)CC2)c2cnn(C)c2n1 [Example 10, 1,6-dimethyl-4-[4-(2-methyl-6-piperazin-1-yl-3-pyridyl)-1-piperidyl]pyrazolo[3,4-b]pyridine] | 13
3 | Cc1cc(N2CCC(c3cc(C)c(N4CCNCC4)cn3)CC2)c2cnn(C)c2n1 [Example 9, 1,6-dimethyl-4-[4-(4-methyl-5-piperazin-1-yl-2-pyridyl)-1-piperidyl]pyrazolo[3,4-b]pyridine] | 31
4 | Cc1cc(N2CCC(c3cnc(N4CCNCC4)cc3C)[C@H](C)C2)c2cnn(C)c2n1 (single isomer, unassigned) [Example 20, 1,6-dimethyl-4-[cis-3-methyl-4-(4-methyl-6-piperazin-1-yl-3-pyridyl)-1-piperidyl]pyrazolo[3,4-b]pyridine] | 6
5 | Cc1cc(N2CCC(c3cnc(N4CCNCC4)cn3)CC2)c2cnn(C)c2n1 [Example 3, 1,6-dimethyl-4-[4-(5-piperazin-1-ylpyrazin-2-yl)-1-piperidyl]pyrazolo[3,4-b]pyridine] | 50
6 | Cc1cc(N2CCC(c3cnc(N4CCNCC4)nc3C)CC2)c2cnn(C)c2n1 [Example 11, 1,6-dimethyl-4-[4-(4-methyl-2-piperazin-1-yl-pyrimidin-5-yl)-1-piperidyl]pyrazolo[3,4-b]pyridine] | 42
7 | Cc1cc(N2CCNCC2)cnc1C1CCN(c2ccnc3c2cnn3C)CC1 [Example 5, 1-methyl-4-[4-(3-methyl-5-piperazin-1-yl-2-pyridyl)-1-piperidyl]pyrazolo[3,4-b]pyridine] | 64
8 | Cc1cc(N2CCNCC2)ncc1C1CCN(c2ccnc3c2cnn3C)CC1 [Example 6, 1-methyl-4-[4-(4-methyl-6-piperazin-1-yl-3-pyridyl)-1-piperidyl]pyrazolo[3,4-b]pyridine] | 37
9 | Cc1cc(N2CCC(c3ccc(N4CCNCC4)cn3)CC2)c2cnn(C)c2n1 [Example 2, 1,6-dimethyl-4-[4-(5-piperazin-1-yl-2-pyridyl)-1-piperidyl]pyrazolo[3,4-b]pyridine] | 21
10 | Cc1cc(N2CCC(c3ncc(N4CC[C@@H](N)[C@@H](F)C4)cc3C)CC2)c2cnn(C)c2n1 [Example 15, (3S,4R)-1-[6-[1-(1,6-dimethylpyrazolo[3,4-b]pyridin-4-yl)-4-piperidyl]-5-methyl-3-pyridyl]-3-fluoro-piperidin-4-amine] | 47
11 | COc1cc(N2CCNCC2)cnc1C1CCN(c2cc(C)nc3c2cnn3C)CC1 [Example 14, 4-[4-(3-methoxy-5-piperazin-1-yl-2-pyridyl)-1-piperidyl]-1,6-dimethyl-pyrazolo[3,4-b]pyridine] | 13
12 | CO[C@H]1CN(c2cnc(C3CCN(c4cc(C)nc5c4cnn5C)CC3)c(C)c2)CC[C@@H]1N [Example 17, (3S,4S)-1-[6-[1-(1,6-dimethylpyrazolo[3,4-b]pyridin-4-yl)-4-piperidyl]-5-methyl-3-pyridyl]-3-methoxy-piperidin-4-amine] | 39
13 | COC[C@H]1CN(c2cnc(C3CCN(c4cc(C)nc5c4cnn5C)CC3)c(C)c2)CCN1 [Example 16, 4-[4-[5-[(3R)-3-(methoxymethyl)piperazin-1-yl]-3-methyl-2-pyridyl]-1-piperidyl]-1,6-dimethyl-pyrazolo[3,4-b]pyridine] | 32

Second part, the molecule after the results:

Row | IC50 [nM] | SMILES
14 | 11 | Cc1cc(N2CC[C@H](c3ccc(N4CC5(CNCCO5)C4)cn3)[C@@H](C)C2)c2cnn(C)c2n1 [Example 38, 2-[6-[(3R,4S)-1-(1,6-dimethylpyrazolo[3,4-b]pyridin-4-yl)-3-methyl-4-piperidyl]-3-pyridyl]-5-oxa-2,8-diazaspiro[3.5]nonane]
15 | 21 | CO[C@@H]1CN(c2ccc([C@H]3CCN(c4cc(C)nc5c4cnn5C)C[C@@H]3C)nc2)C[C@H]1N [Example 36, (3R,4R)-1-[6-[(3R,4S)-1-(1,6-dimethylpyrazolo[3,4-b]pyridin-4-yl)-3-methyl-4-piperidyl]-3-pyridyl]-4-methoxy-pyrrolidin-3-amine]
16 | 6 | Cc1cc(N2CC[C@H](c3ccc(N4CC(C)(N)C4)cn3)[C@@H](C)C2)c2cnn(C)c2n1 [Example 43, 1-[6-[(3R,4S)-1-(1,6-dimethylpyrazolo[3,4-b]pyridin-4-yl)-3-methyl-4-piperidyl]-3-pyridyl]-3-methyl-azetidin-3-amine]
17 | 7 | Cc1cc(N2CC[C@H](c3ccc(N4CCOC[C@@H](N)C4)cn3)[C@@H](C)C2)c2cnn(C)c2n1 [Example 40, (6S)-4-[6-[(3R,4S)-1-(1,6-dimethylpyrazolo[3,4-b]pyridin-4-yl)-3-methyl-4-piperidyl]-3-pyridyl]-1,4-oxazepan-6-amine]
18 | 7 | Cc1cc(N2CCC(c3ncc(N4CCNCC4)nc3C)[C@H](C)C2)c2cnn(C)c2n1 (single isomer, unassigned) [Example 23, 1,6-dimethyl-4-[trans-3-methyl-4-(3-methyl-5-piperazin-1-yl-pyrazin-2-yl)-1-piperidyl]pyrazolo[3,4-b]pyridine]
19 | 7 | Cc1cc(N2CC[C@@H](c3ncc(N4CC5(CNCCO5)C4)cc3C)[C@H](C)C2)c2cnn(C)c2n1 [Example 27, 2-[6-[(3S,4R)-1-(1,6-dimethylpyrazolo[3,4-b]pyridin-4-yl)-3-methyl-4-piperidyl]-5-methyl-3-pyridyl]-5-oxa-2,8-diazaspiro[3.5]nonane]
20 | 6 | Cc1cc(N2CCC(c3ncc(N4CCNCC4)nc3C)[C@H](C)C2)c2cnn(C)c2n1 (single isomer, unassigned) [Example 22, 1,6-dimethyl-4-[cis-3-methyl-4-(3-methyl-5-piperazin-1-yl-pyrazin-2-yl)-1-piperidyl]pyrazolo[3,4-b]pyridine]
21 | 9 | Cc1cc(N2CC[C@H](c3ccc(N4CCNCC4)cn3)[C@@H](C)C2)c2cnn(C)c2n1 [Example 35, 1,6-dimethyl-4-[(3R,4S)-3-methyl-4-(5-piperazin-1-yl-2-pyridyl)-1-piperidyl]pyrazolo[3,4-b]pyridine]
22 | 13 | COC[C@H]1CN(c2ccc([C@H]3CCN(c4cc(C)nc5c4cnn5C)C[C@@H]3C)nc2)CCN1 [Example 37, 4-[(3R,4S)-4-[5-[(3R)-3-(methoxymethyl)piperazin-1-yl]-2-pyridyl]-3-methyl-1-piperidyl]-1,6-dimethyl-pyrazolo[3,4-b]pyridine]
23 | 8 | COC[C@H]1CN(c2cnc([C@@H]3CCN(c4cc(C)nc5c4cnn5C)C[C@H]3C)c(C)c2)CCN1 [Example 29, 4-[(3S,4R)-4-[5-[(3R)-3-(methoxymethyl)piperazin-1-yl]-3-methyl-2-pyridyl]-3-methyl-1-piperidyl]-1,6-dimethyl-pyrazolo[3,4-b]pyridine]
24 | 10 | Cc1cc(N2CC[C@H](c3ccc(N4CC[C@@H](N)[C@H](F)C4)cn3)[C@@H](C)C2)c2cnn(C)c2n1 [Example 41, (3R,4R)-1-[6-[(3R,4S)-1-(1,6-dimethylpyrazolo[3,4-b]pyridin-4-yl)-3-methyl-4-piperidyl]-3-pyridyl]-3-fluoro-piperidin-4-amine]

— patent publication US20240360126A1, “PYRAZOLO[3,4-B]PYRIDINE COMPOUNDS FOR THE TREATMENT OF AUTOIMMUNE DISEASE” (Hoffmann-La Roche Inc., priority 2021, published 2024)
